Our source for the MIC values is ChEMBL document CHEMBL1155637, “Oleanane triterpenes from Junellia tridens” (2000).

In brackets after ≈: the same amount, converted by molar mass.

The subject of this experiment is Mycobacterium tuberculosis. The experiment can be described thus: Antitubercular activity against Mycobacterium tuberculosis H37Rv ATCC 27294 by BACTEC 460 radiorespirometric assay. Format: functional.
The compound `CC(C)[C@@H]1CC[C@]2(C)[C@H](CC=C3[C@@H]4CC(C)(C)CC[C@]4(C(=O)O)CC[C@]32C)[C@@]1(C)CCC(=O)O` came in with an MIC of 128 µg/mL (≈ 271 µM).
`CC1(C)CC[C@]2(C(=O)O)CC[C@]3(C)C(=CC[C@@H]4[C@@]5(C)CC[C@@H](O)C(C)(C)[C@@H]5CC[C@]43C)[C@@H]2C1` had an MIC of 16 µg/mL (≈ 35 µM).
In turn, `CC1(C)CC[C@]2(C(=O)O)CC[C@]3(C)C(=C2C1)C=C[C@@H]1[C@@]2(C)CC[C@@H](O)C(C)(C)[C@@H]2CC[C@]13C` showed an MIC of 64 µg/mL (≈ 141 µM).
In turn, `CC1(C)CC[C@@]23CC[C@]4(C)[C@@](C=C[C@@H]5[C@@]6(C)CC[C@@H](O)C(C)(C)[C@@H]6CC[C@]54C)(OC2=O)[C@@H]3C1` gave an MIC of 64 µg/mL (≈ 141 µM).
For the compound `C=C(C)[C@@H]1CC[C@]2(C(=O)O)CC[C@]3(C)[C@H](CC[C@@H]4[C@@]5(C)CC[C@@H](O)C(C)(C)[C@@H]5CC[C@]43C)[C@@H]12` [EPIBETULINIC ACID], the minimal inhibitory concentration (MIC) was determined as 50 µg/mL (≈ 109 µM).
As for `CC1(C)CC[C@]2(C(=O)O)CC[C@]3(C)C(=CC[C@@H]4[C@@]5(C)CC[C@H](O)C(C)(C)[C@@H]5CC[C@]43C)[C@@H]2C1` [OLEANOLIC_ACID], 50 µg/mL (≈ 109 µM) was the least that counted as inhibitory (MIC).
Consider `CC1(C)CC[C@]2(C(=O)O)CC[C@]3(C)C(=CC[C@@H]4[C@@]5(C)CCC(=O)C(C)(C)[C@@H]5CC[C@]43C)[C@@H]2C1` [OLEANONIC ACID], for which inhibition of growth (MIC) required 16 µg/mL (≈ 35.2 µM).
Consider `CO[C@H]1/C=C/O[C@@]2(C)Oc3c(C)c(O)c4c(O)c(c(/C=N/N5CCN(C)CC5)c(O)c4c3C2=O)NC(=O)/C(C)=C\C=C\[C@H](C)[C@H](O)[C@@H](C)[C@@H](O)[C@@H](C)[C@H](OC(C)=O)[C@@H]1C` [RIFAMPIN], for which the MIC stood at 0.16 µg/mL (≈ 0.194 µM).

What is called MIC is the lowest concentration found to suppress growth. Higher therefore signals a less susceptible organism.
